Results as given in publication PMC12655529, “Serendipitous Hinge Modulation Hypothetically Reprograms Caerin 1.1-LC Antibacterial Mechanism and Gram-Negative Selectivity” (Pharmaceutics, 2025).
Ends that are not written are not given here.

Tests used:
[1] = test system: Pseudomonas aeruginosa ATCC 9027; type: cell-based
[2] = test system: K. pneumoniae ATCC BAA-2342; type: cell-based, Klebsiella pneumoniae
Experimental: (§1) The antimicrobial activities of the peptides were evaluated by determining their minimal inhibitory concentration (MIC) and minimal bactericidal concentration (MBC) values following reported protocols [20]. The tested microorganisms included seven Gram-negative bacterial strains (Escherichia coli ATCC 8739, E. coli ATCC-BAA 2340, E. coli NCTC 13846, Klebsiella pneumoniae ATCC 43816, K. pneumoniae ATCC BAA-2342, Pseudomonas aeruginosa ATCC 9027, Acinetobacter baumannii ATCC BAA-747), three Gram-positive bacterial strains (Staphylococcus aureus ATCC 6538, Enterococcus faecalis NCTC 12697, MRSA NCTC 12493, and the fungal strain Candida albicans ATCC 10231. For the assay, each bacterial strain was cultured overnight at 37 °C in 100 mL of medium in a flask. The cultures were then subcultured to reach the logarithmic growth phase and diluted to 5 × 10^5 CFU/mL. Peptide samples were serially diluted two-fold in microplates, with concentrations ranging from 128 μM to 1 μM. The diluted bacterial suspensions were mixed with the peptide solutions and incubated overnight at 37 °C. The MIC values were determined by measuring the absorbance of each well using a Synergy HT plate reader (Agilent, Cheshire, UK). For MBC determination, aliquots from wells showing no visible growth were inoculated onto agar plates to assess bacterial viability. Each experiment was repeated independently three times and conducted in three independent replicates.

Gram-positive bacteria = assay: Geometric mean MIC and therapeutic index, Gram-positive; type: cell-based; conditions: geometric mean of MICs
[3] = test system: Acinetobacter baumannii ATCC BAA-747; type: cell-based; conditions: ATCC BAA-747
[4] = test system: Enterococcus faecalis NCTC 12697; type: cell-based; conditions: NCTC 12697
Experimental: as §1

horse red blood cells = assay: Haemolysis assay; type: cell-based; conditions: concentration inducing 10% haemolysis of horse erythrocytes; 4% (v/v) in PBS, 2 h, 37 °C, absorbance 570 nm; no haemolysis at maximum testing concentration (128 μM) recorded as 256 μM
Experimental: The peptide cytotoxicity against mammalian erythrocytes was evaluated by haemolysis assay on horse red blood cells (E&O Laboratories Ltd., Falkirk, UK). Fresh horse blood was washed three times with PBS and resuspended to a final concentration of 4% (v/v) in PBS. The diluted blood suspension was then mixed with peptide solutions at varying concentrations and incubated for 2 h at 37 °C. Red blood cell suspensions treated with 0.1% Triton X-100 and PBS were used as controls. The Triton X-100-treated suspension was the positive control (for 100% haemolysis), while the PBS-treated suspension was the blank control. Following incubation, the mixtures were centrifuged at 1000× g for 10 min to separate erythrocytes from the supernatant. The absorbance of the supernatants was detected at 570 nm. The percentage haemolysis was calculated by following the equationPercentage Haemolysis = (AbsSample − AbsBlank)/(AbsPositive − AbsBlank) × 100%

[5] = test system: Escherichia coli ATCC 8739; type: cell-based; conditions: ATCC 8739
Gram-negative bacteria = assay: Geometric mean MIC and therapeutic index, Gram-negative; type: cell-based; conditions: geometric mean of MICs
MRSA NCTC 12493 = type: cell-based, Staphylococcus aureus
[6] = test system: Staphylococcus aureus ATCC 6538; type: cell-based; conditions: ATCC 6538
Experimental: as §1

E. coli NCTC 13846 = type: cell-based, Escherichia coli
Experimental: as §1

E. coli ATCC BAA-2340 = type: cell-based, Escherichia coli
Experimental: as §1

[7] = test system: Klebsiella pneumoniae ATCC 43816; type: cell-based; conditions: ATCC 43816
E. coli (ATCC-BAA 2340) = type: cell-based, Escherichia coli; conditions: ATCC-BAA 2340
Experimental: The peptide sensitivity was determined in different salt- and serum-containing environments. Bacterial strains were prepared following the MIC detection protocol described previously. To evaluate peptide sensitivity under physiological conditions, various concentrations of salt ions (150 mM NaCl, 4.5 mM KCl, 2 mM CaCl2, 1 mM MgCl2, 8 µM ZnCl2, 6 µM NH4Cl, or 4 µM FeCl3) and serum (10% FBS) were prepared in McCartney bottles prior to the addition of bacterial suspensions. The subcultured bacterial suspensions were then introduced to these modified media conditions. For MIC determination, the treated bacterial suspensions were diluted and dispensed into 96-well plates containing peptide solutions at graded concentrations. This assay allowed for the detection of potential alterations in MIC values, serving as an indicator of peptide sensitivity under different physiological conditions. All experiments were independently repeated three times, each with three replicates.

GLLSVLGSLKKIVPHVVPLIAEKL-NH2 [Caerin 1.1-LC 11K]
2 µM: MIC, E. coli (ATCC BAA-2340) (E. coli ATCC BAA-2340)
8.8 µM: GM MIC Gram-Negative (Gram-negative bacteria)
32 µM: MBC, P. aeruginosa (ATCC 9027) [1] | MBC, A. baumannii (ATCC BAA-747) [3] | MIC, A. baumannii (ATCC BAA-747) [3] | MBC, S. aureus (ATCC 6538) [6] | MBC, K. pneumoniae (ATCC 43816) [7]
128 µM: MBC, E. faecalis (NCTC 12697) [4] | MIC, E. faecalis (NCTC 12697) [4]
16 µM: MIC, P. aeruginosa (ATCC 9027) [1] | MBC, K. pneumoniae (ATCC BAA-2342) [2] | MBC, E. coli (ATCC 8739) [5] | MIC, K. pneumoniae (ATCC 43816) [7]
8 µM: MIC, K. pneumoniae (ATCC BAA-2342) [2] | MIC, E. coli (ATCC 8739) [5] | MBC, MRSA (NCTC 12493) (MRSA NCTC 12493) | MIC, MRSA (NCTC 12493) (MRSA NCTC 12493) | MIC, S. aureus (ATCC 6538) [6] | MBC, E. coli (NCTC 13846) (E. coli NCTC 13846) | MBC, E. coli (ATCC BAA-2340) (E. coli ATCC BAA-2340)
35.8 µM: HC10 (horse red blood cells)
4 µM: MIC, E. coli (NCTC 13846) (E. coli NCTC 13846)
20.1 µM: GM MIC Gram-Positive (Gram-positive bacteria)

GLLSVLGSLKKIVPKAVPKIAEKL-NH2 [Caerin 1.1-LC 11K.19K.PKAVP]
64 µM: MBC, P. aeruginosa (ATCC 9027) [1] | MBC, MRSA (NCTC 12493) (MRSA NCTC 12493) | MIC, MRSA (NCTC 12493) (MRSA NCTC 12493) | MBC, K. pneumoniae (ATCC 43816) [7] | MIC, K. pneumoniae (ATCC 43816) [7]
128 µM: MBC, A. baumannii (ATCC BAA-747) [3] | MIC, A. baumannii (ATCC BAA-747) [3]
256 µM: HC10 (horse red blood cells)
32 µM: MIC, P. aeruginosa (ATCC 9027) [1]
>128 µM: MBC, K. pneumoniae (ATCC BAA-2342) [2] | MIC, K. pneumoniae (ATCC BAA-2342) [2] | MBC, E. faecalis (NCTC 12697) [4] | MIC, E. faecalis (NCTC 12697) [4] | MBC, S. aureus (ATCC 6538) [6] | MIC, S. aureus (ATCC 6538) [6]
2 µM: MBC, E. coli (NCTC 13846) (E. coli NCTC 13846) | MIC, E. coli (NCTC 13846) (E. coli NCTC 13846)
161.5 µM: GM MIC Gram-Positive (Gram-positive bacteria)
8 µM: MBC, E. coli (ATCC 8739) [5] | MIC, E. coli (ATCC 8739) [5] | MBC, E. coli (ATCC BAA-2340) (E. coli ATCC BAA-2340) | MIC, E. coli (ATCC BAA-2340) (E. coli ATCC BAA-2340)
26.08 µM: GM MIC Gram-Negative (Gram-negative bacteria)

GLLSVLGSLKLIVAHVVALIAEKL-NH2 [Caerin 1.1-LC 2P-2A]
256 µM: GM MIC Gram-Positive (Gram-positive bacteria) | HC10 (horse red blood cells) | GM MIC Gram-Negative (Gram-negative bacteria)
>128 µM: MBC, P. aeruginosa (ATCC 9027) [1] | MIC, P. aeruginosa (ATCC 9027) [1] | MBC, K. pneumoniae (ATCC BAA-2342) [2] | MIC, K. pneumoniae (ATCC BAA-2342) [2] | MBC, A. baumannii (ATCC BAA-747) [3] | MIC, A. baumannii (ATCC BAA-747) [3] | MBC, E. faecalis (NCTC 12697) [4] | MIC, E. faecalis (NCTC 12697) [4] | MBC, E. coli (ATCC 8739) [5] | MIC, E. coli (ATCC 8739) [5] | MBC, MRSA (NCTC 12493) (MRSA NCTC 12493) | MIC, MRSA (NCTC 12493) (MRSA NCTC 12493) | MBC, S. aureus (ATCC 6538) [6] | MIC, S. aureus (ATCC 6538) [6] | MBC, E. coli (NCTC 13846) (E. coli NCTC 13846) | MIC, E. coli (NCTC 13846) (E. coli NCTC 13846) | MBC, E. coli (ATCC BAA-2340) (E. coli ATCC BAA-2340) | MIC, E. coli (ATCC BAA-2340) (E. coli ATCC BAA-2340) | MBC, K. pneumoniae (ATCC 43816) [7] | MIC, K. pneumoniae (ATCC 43816) [7]

GLLSVLGSLKLIVPGGGPLIAEKL-NH2 [Caerin 1.1-LC PGGGP]
256 µM: GM MIC Gram-Positive (Gram-positive bacteria) | HC10 (horse red blood cells)
>128 µM: MBC, P. aeruginosa (ATCC 9027) [1] | MIC, P. aeruginosa (ATCC 9027) [1] | MBC, K. pneumoniae (ATCC BAA-2342) [2] | MIC, K. pneumoniae (ATCC BAA-2342) [2] | MBC, A. baumannii (ATCC BAA-747) [3] | MIC, A. baumannii (ATCC BAA-747) [3] | MBC, E. faecalis (NCTC 12697) [4] | MIC, E. faecalis (NCTC 12697) [4] | MBC, MRSA (NCTC 12493) (MRSA NCTC 12493) | MIC, MRSA (NCTC 12493) (MRSA NCTC 12493) | MBC, S. aureus (ATCC 6538) [6] | MIC, S. aureus (ATCC 6538) [6] | MBC, K. pneumoniae (ATCC 43816) [7] | MIC, K. pneumoniae (ATCC 43816) [7]
128 µM: MBC, E. coli (ATCC 8739) [5] | MIC, E. coli (ATCC 8739) [5] | MIC, E. coli (ATCC BAA-2340) (E. coli ATCC BAA-2340)
190.21 µM: GM MIC Gram-Negative (Gram-negative bacteria)
> 128 µM: MBC, E. coli (ATCC BAA-2340) (E. coli ATCC BAA-2340)

GLLSVLGSLKLIVPHLLPLIAEKL-NH2 [Caerin 1.1-LC PHLLP]
6.56 µM: GM MIC Gram-Positive (Gram-positive bacteria)
4 µM: MIC, A. baumannii (ATCC BAA-747) [3] | MIC, E. coli (ATCC 8739) [5] | MBC, MRSA (NCTC 12493) (MRSA NCTC 12493) | MIC, MRSA (NCTC 12493) (MRSA NCTC 12493) | MBC, S. aureus (ATCC 6538) [6] | MIC, S. aureus (ATCC 6538) [6] | MBC, E. coli (NCTC 13846) (E. coli NCTC 13846) | MIC, E. coli (NCTC 13846) (E. coli NCTC 13846) | MBC, E. coli (ATCC BAA-2340) (E. coli ATCC BAA-2340) | MIC, E. coli (ATCC BAA-2340) (E. coli ATCC BAA-2340)
8 µM: MIC, K. pneumoniae (ATCC BAA-2342) [2] | MBC, A. baumannii (ATCC BAA-747) [3] | MBC, E. coli (ATCC 8739) [5] | GM MIC Gram-Negative (Gram-negative bacteria) | MBC, K. pneumoniae (ATCC 43816) [7] | MIC, K. pneumoniae (ATCC 43816) [7]
64 µM: MBC, P. aeruginosa (ATCC 9027) [1]
1.6 µM: HC10 (horse red blood cells)
16 µM: MBC, K. pneumoniae (ATCC BAA-2342) [2]
32 µM: MIC, P. aeruginosa (ATCC 9027) [1] | MBC, E. faecalis (NCTC 12697) [4] | MIC, E. faecalis (NCTC 12697) [4]

GLLSVLKSLKKIVPHVVPKIAEKL-NH2 [Caerin 1.1-LC 7.11.19K]
46.5 µM: HC10 (horse red blood cells)
4/4 µM: MBC, P. aeruginosa (ATCC 9027) [1] | MIC, P. aeruginosa (ATCC 9027) [1]
64 µM: MIC, Ca^2+ (E. coli (ATCC-BAA 2340))
128 µM: MBC, E. faecalis (NCTC 12697) [4] | MIC, E. faecalis (NCTC 12697) [4]
2 µM: MIC, Control (E. coli (ATCC-BAA 2340)) | MIC, Fe^3+ (E. coli (ATCC-BAA 2340)) | MIC, K^+ (E. coli (ATCC-BAA 2340)) | MIC, NH4^+ (E. coli (ATCC-BAA 2340)) | MIC, Na^+ (E. coli (ATCC-BAA 2340)) | MBC, E. coli (ATCC 8739) [5] | MIC, E. coli (ATCC 8739) [5] | MBC, E. coli (ATCC BAA-2340) (E. coli ATCC BAA-2340) | MIC, E. coli (ATCC BAA-2340) (E. coli ATCC BAA-2340)
16 µM: MIC, FBS (E. coli (ATCC-BAA 2340))
3.28 µM: GM MIC Gram-Positive (Gram-positive bacteria)
8 µM: MBC, A. baumannii (ATCC BAA-747) [3] | MBC, MRSA (NCTC 12493) (MRSA NCTC 12493) | MIC, MRSA (NCTC 12493) (MRSA NCTC 12493)
4 µM: MBC, K. pneumoniae (ATCC BAA-2342) [2] | MIC, K. pneumoniae (ATCC BAA-2342) [2] | MIC, A. baumannii (ATCC BAA-747) [3] | MIC, Mg^2+ (E. coli (ATCC-BAA 2340)) | MBC, S. aureus (ATCC 6538) [6] | MIC, S. aureus (ATCC 6538) [6] | MBC, E. coli (NCTC 13846) (E. coli NCTC 13846) | MIC, E. coli (NCTC 13846) (E. coli NCTC 13846) | MBC, K. pneumoniae (ATCC 43816) [7] | MIC, K. pneumoniae (ATCC 43816) [7]
